The values below come from patent publication US10370380B2, “Octahydropyrrolo[3,4-c]pyrrole derivatives and uses thereof” (Sunshine Lake Pharma Co., Ltd., priority 2015, dated 2019).

One series has as its target T1, hERG channel (Homo sapiens, UniProt Q12809).
T1 construct: purchased Invitrogen
Briefly: hERG fluorescence polarization assay (potential of inducing QT interval prolongation). The format is binding. The method, then: The potential of the compound disclosed herein inducing QT interval prolongation was evaluated by detecting if the compound would block the hERG channel. The specific test method is as follows:
Precisely weighed compound disclosed herein was dissolved in DMSO to formulate a solution at the highest concentration of 10.0 mM, and then the solution was diluted to a initial concentration of 120.0 μM with hERG FP Assay Buffer (Invitrogen); the hERG Tracer Red stock solution (Invitrogen) and the positive control E-4031 stock solution (Invitrogen) were respectively diluted to initial concentrations of 4.0 nM and 120.0 μM with hERG FP Assay Buffer (Invitrogen). […]
The above-mentioned solution of the compound disclosed herein and E-4031 at the initial concentration of 120 μM were respectively diluted with hERG FP Assay Buffer 5-fold in series to provide 8 concentration of 120.0 μM, 24.0 μM, 4.8 μM, 960.0 nM, 192.0 nM, 38.4 nM, 7.7 nM and 1.5 nM. […] After that, the 384-well plate was put into an oscillator (PHMP-4, Grant-sio), in 25° C., 250 rpm, to incubate for 4 hours, and the fluorescence polarization values were measured by multi-function microplate reader (PHERAStarFS, BMG LABTECH) and corrected with the minimum and maximum fluorescence polarization values of E-4031, and the IC50 of the compound disclosed herein was calculated by GraphPad software. […]

The next series concerns the target T2, humanized OX2 receptor (Homo sapiens, UniProt O43614).
T2 construct: expressed in transfected cells; host or cells: HEK-293 cells
T2 sequence (O43614 1-444): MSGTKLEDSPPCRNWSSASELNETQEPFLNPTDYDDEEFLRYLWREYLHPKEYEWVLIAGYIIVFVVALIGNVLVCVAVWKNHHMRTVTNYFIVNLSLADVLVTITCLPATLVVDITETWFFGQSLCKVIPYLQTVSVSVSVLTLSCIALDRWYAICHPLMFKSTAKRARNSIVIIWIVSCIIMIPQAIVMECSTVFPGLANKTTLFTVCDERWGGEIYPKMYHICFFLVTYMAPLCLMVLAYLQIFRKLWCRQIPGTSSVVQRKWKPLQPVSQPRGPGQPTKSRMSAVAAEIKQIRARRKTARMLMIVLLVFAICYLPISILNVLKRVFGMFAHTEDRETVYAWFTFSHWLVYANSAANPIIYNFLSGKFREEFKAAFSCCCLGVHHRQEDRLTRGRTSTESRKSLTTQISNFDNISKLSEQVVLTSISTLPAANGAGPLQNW
Put plainly: Antagonistic effect on humanized OX2 receptor, calcium flux by fluorescence detection in HEK-293 cells. The settings on record: HEK-293 cells, calcium flux induced by 10 nM orexin B; read-out: OX2 IC50. The format is cell-based. The procedure: The capability of the compounds provided herein to antagonize humanized OX2 receptors expressed in HEK-293 cells was evaluated by the influence of the compounds disclosed herein on calcium flux in cells induced by agonist detected by a method of fluorescence detection. The cells were suspended in DMEM culture medium (invitrogen), and then added to a microplate with an average density of 3×10^4 cells/well. The Hank's balanced salt solution (pH 7.4) containing fluorescent probes (Fluo4 NW, Invitrogen), probenecid (invitrogen), 20 mM […] (invitrogen) was added to the above microplate, and then incubated together with the cells at 37° C. for 60 min, further incubated at 22° C. for 15 min. The microplate was placed in a microplate reader (CellLux, PerkinElmer), and to which was added the test compound or reference antagonist or Hank's balanced salt solution, 5 min later, 10 nM of orexin B or Hank's balanced salt solution (as a blank contrast) was added. […] The experimental results were expressed as an inhibition percentage relative to a control group (the group with 10 nM of orexin B).
The standard reference antagonist is JNJ10397049, and IC50 values were calculated by the dose-effect curve obtained from a series of concentrations of the experimental test.

Series [1] can be described thus: Pharmacokinetic evaluation after intravenous or gavage administration to dogs. To be noted: beagle, dog, in vivo. The format is in vivo, Beagle dogs. The method, then: The compounds disclosed herein were administered in form of a saline solution containing 5% DMSO, 5% Kolliphor HS 15, 2% (2% HCl) and 88% Saline, or a solution containing 10% DMSO, 10% Kolliphor HS 15 and 80% physiological saline to the subject animals. For intravenous administration, the animals were administered with a dose of 1 mg/kg or 2 mg/kg, and vein blood samples (0.3 mL) were collected at the time points of 0.083, 0.25, 0.5, 1.0, 2.0, 4.0, 6.0, 8.0 and 24 h after drug administration; plasma samples were collected by centrifugation of the vein blood samples at 3000 rpm or 4000 rpm for 10 minutes, and stored at −20° C. or −70° C. For gavage administration, the animals were administered with a dose of 2.5 mg/kg or 5 mg/kg, and vein blood samples (0.3 mL) were collected at the time points of 0.25, 0.5, 1.0, 2.0, 4.0, 6.0, 8.0 and 24 h after drug administration; plasma samples were collected by centrifugation at 3000 rpm or 4000 rpm for 10 minutes, and stored at −20° C. or −70° C. The positive control is suvorexant.
The above plasma samples were analyzed by the LC-MS/MS system.

T1 sequence (Q12809 whole entry): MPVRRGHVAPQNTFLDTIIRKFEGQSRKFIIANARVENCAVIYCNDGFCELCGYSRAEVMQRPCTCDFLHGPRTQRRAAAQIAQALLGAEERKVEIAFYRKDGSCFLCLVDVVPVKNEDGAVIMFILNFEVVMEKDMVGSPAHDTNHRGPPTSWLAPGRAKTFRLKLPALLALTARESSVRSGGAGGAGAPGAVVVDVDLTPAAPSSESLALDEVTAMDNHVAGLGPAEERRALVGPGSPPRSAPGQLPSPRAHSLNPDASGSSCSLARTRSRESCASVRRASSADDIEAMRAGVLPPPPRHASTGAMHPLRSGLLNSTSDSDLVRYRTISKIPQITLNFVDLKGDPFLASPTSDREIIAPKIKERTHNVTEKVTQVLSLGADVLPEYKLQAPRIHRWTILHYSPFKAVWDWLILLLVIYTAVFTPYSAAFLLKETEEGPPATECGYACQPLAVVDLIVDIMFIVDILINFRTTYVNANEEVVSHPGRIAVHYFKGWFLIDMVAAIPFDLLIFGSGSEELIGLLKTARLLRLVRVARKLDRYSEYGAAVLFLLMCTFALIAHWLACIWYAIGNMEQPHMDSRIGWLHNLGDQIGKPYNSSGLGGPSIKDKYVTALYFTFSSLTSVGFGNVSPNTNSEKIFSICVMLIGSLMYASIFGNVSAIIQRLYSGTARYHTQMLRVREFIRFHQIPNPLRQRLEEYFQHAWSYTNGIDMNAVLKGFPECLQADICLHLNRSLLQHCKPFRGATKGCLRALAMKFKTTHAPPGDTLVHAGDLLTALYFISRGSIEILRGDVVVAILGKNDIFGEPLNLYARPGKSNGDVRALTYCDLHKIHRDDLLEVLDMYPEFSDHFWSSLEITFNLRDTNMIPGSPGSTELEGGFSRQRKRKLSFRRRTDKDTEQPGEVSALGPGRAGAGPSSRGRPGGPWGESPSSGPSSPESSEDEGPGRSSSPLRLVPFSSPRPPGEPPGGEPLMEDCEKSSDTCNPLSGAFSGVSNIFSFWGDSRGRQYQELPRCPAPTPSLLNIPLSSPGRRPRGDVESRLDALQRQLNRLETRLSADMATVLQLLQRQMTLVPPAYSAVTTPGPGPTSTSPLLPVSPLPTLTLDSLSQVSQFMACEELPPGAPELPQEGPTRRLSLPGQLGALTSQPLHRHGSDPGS

With `Cc1ccc(-n2nccn2)c(C(=O)N2CC3CN(c4nc5cc(Cl)ccc5o4)CC3C2)c1` (stereo not drawn) [Example 1, (5-(5-chlorobenzo[d]oxazol-2-yl)hexahydropyrrolo[3,4-c]pyrrol-2(1H)-yl)(5-methyl-2-(2H-1,2,3-triazol-2-yl)phenyl)methanone], the IC50 against hERG channel was found to be 3280 nM. The IC50 at humanized OX2 receptor was determined as 308 nM. In series [1] (iv, 1 mg/kg), this molecule displayed an AUC(0-inf) of 2710 ng·h/mL, an AUC(0-t) of 2150 ng·h/mL, a Cmax of 821 ng/mL and an MRT inf of 4.97 h. In series [1] (iv, 1 mg/kg), this molecule showed a Vd of 1.83 L/kg, a clearance of 6.14 mL/min/kg and a half-life of 3.73 h. In series [1] (po, 5 mg/kg), the AUC(0-inf) came out at 16300 ng·h/mL, the AUC(0-t) was 15900 ng·h/mL, the Cmax is 1410 ng/mL and the F is listed as 147.6%. Also, in series [1] (po, 5 mg/kg), the MRT inf came out at 6.84 h and the half-life is 4.41 h.

A word on the IC50: it is the concentration needed to halve the response being measured. As a reminder, the AUC(0-inf) is total exposure, with the tail of the curve extrapolated. The AUC(0-t) is exposure summed from dosing to a finite time, without extrapolation to infinity. Higher therefore signals high exposure. Broadly, the Cmax is the highest concentration seen after dosing. As usually defined, the MRT inf is the average time that molecules of a dose stay in the body. A word on the half-life: it is the time in which the quantity being followed falls by half. A lower half-life goes with fast loss.
